Reference: patent US8828993B2, “Psychotropic agents having glutamate NMDA activity” (Ramot At Tel-Aviv University Ltd., priority 2006, dated 2014)

System: rats pretreated with MK-801
Test: Morris Water Maze in rats pretreated with MK-801
Format: in vivo
Details: rats, MK-801 alone 0.15 mg/kg i.p. on day 1
Protocol: The Morris Water Maze is a well known test aimed to assess spatial cognitive tasks (Anger, et al., Animal test systems to study behavioral dysfunctions of neurodegenerative disorders, Neurotoxicology, 12, 403-13 (1991)). The maze consists of a circular pool measuring 1.80 m in diameter 60 cm in height. The pool was filled with water (21±1° C.) to a depth of 30 cm. A circular hidden escape platform (10 cm in diameter) was placed just below the water surface. The test room contained several permanent extra maze cues such as the rat housing rack, laboratory table, posters on the walls, etc.
The Morris Water Maze is a well known test aimed to assess spatial cognitive tasks. The maze consists of a circular pool measuring 1.80 m in diameter 60 cm in height. The pool was filled with water (21±1° C.) to a depth of 30 cm. A circular hidden escape platform (10 cm in diameter) was placed just below the water surface. The test room contained several permanent extra maze cues such as the rat housing rack, laboratory table, posters on the walls, etc.
In the experiment rats were given Compound 1 orally on day 1 and the first test begun 90 minute later, six trials per day, for 3 consecutive days, to find the hidden platform (acquisition phase). The escape latency, i.e., the time required by the rat to find and climb onto the platform, was recorded for up to 120 sec. Each rat was allowed to remain on the platform for 30 sec, after which it was removed to its home cage.
A video camera was placed above the center of the pool for tracking the rat, and a video tracking system (Noldus) with online digital output directly fed data into a computer. Data were analyzed using EthoVision automated tracking system software (Noldus).
Compound 1 at both doses decreased the latency to the platform on day 3 of the experiment but not on days 1 and 2.
The relief of cognitive impairments was also shown in the use of Compound 6. […] Compound 6 at 10 mg/kg decreased the latency to the platform on days 2 and 3 of the experimentation.

## C[C@]12N[C@H](Cc3ccccc31)c1ccccc12 [MK-801, reference compound]
  memory tasks (latency to the platform) compared to normal controls: significant impairment
